Assay results: PubChem BioAssay AID1963838 (Molecular Pharmacology Branch, DTP, NCI, 2024)
pIC50: −log10 of the molar value. “And” between values parts separate entries of the source, which are not always exact repeats. Identical values can stand only once.

Tested on: 855422-203-R-J1-PDC complex spheroid viability
Assay: Anticancer human tumor 855422-203-R-J1-PDC patient-derived bladder carcinoma cell line growth inhibition [POLQ]
Conditions: for viability, T/C: stronger effect = lower value
Procedure: Multicellular complex tumor spheroid response to Polymerase (POL) inhibitors (novobiocin, ART-558, RP6685) in combination with a variety of drugs and investigational agents in selected tumor cell lines
The POL inhibitors (novobiocin, ART-558, and RP6685) were evaluated both individually and in combination with standard of care and investigational anticancer small molecules within a complex spheroid model of solid tumors. . Complex spheroids include a stromal component modeled by human endothelial cells (HUVEC) and fibroblasts modeled by human mesenchymal stem cells (MSCs). The concentration ranges selected for each drug and investigational agent were based upon clinically achievable concentrations if the clinical Cmax of the agent was known.
Compounds. The drugs and investigational agents: novobiocin (NSC847541), ART-558 (NSC835418), RP-6685 (NSC848927), peposertib (NSC802822), ceralasertib (NSC780249), elimusertib (NSC800525), camonsertib (NSC841442), AZD-1390 (NSC803789), olaparib (NSC753686), talazoparib (NSC767125), rucaparib (NSC756644), sotorasib (NSC818433), MRTX-1133 (NSC836407), SN-38 (NSC673596), topotecan (NSC609699), epotoside (NSC141540), doxorubicin (NSC123127), gemcitabine (NSC613327), 5-fluorouracil (NSC19893), paclitaxel (NSC125973), vemurafenib (NSC761431), MSA-2 (NSC828583), SN-011 (NSC837082), adavosertib (NSC754352), prexasertib (NSC758257), carboplatin (NSC241240) and oxaliplatin (NSC266046), were obtained from the National Cancer Institute (NCI) Developmental Therapeutics Program Chemical Repository (21). The FDA-approved anticancer drug set is available from the Developmental Therapeutics Program at https://dtp.cancer.gov/organization/dscb/obtaining/. […] The stock solutions were prepared in dimethyl sulfoxide (DMSO, Sigma-Aldrich, St. Louis, MO, cat. D2650), except for the platinum compounds which were prepared in saline (Quality Biological, Gaithersburg, MD, cat. 114-055-101), at 800-fold the tested concentration and stored at -70 degrees C prior to their use. All drugs and investigational agents were tested over a range starting from a high concentration at or near the clinical Cmax and decreasing in half-log increments. If the clinical Cmax for an agent had not been determined, the highest concentration tested was 10 microM, except for SN-38, which was tested at a high concentration of 1 microM.
Cell Culture. All cells were maintained in an incubator at 37 degrees C and 5% CO2 with 95% humidity. The PDC lines were cultured according to standard operating procedures established by the NCI PDMR (https://pdmr.cancer.gov). Table 3 of the manuscript, lists the cell lines along with the number of the three cell types plated to form the mct-spheroids and media for tumor cell growth. After thawing, all PDC lines, except 997537-175-T-J1-PDC and 415267-285-R-J2-PDC, were cultured in Matrigel-coated flasks prepared with a working solution of 1X Ham's F-12 nutrient mix, without supplementation (Thermo Fisher Scientific, cat. 11765054), 100 U/mL penicillin-streptomycin (Thermo Fisher Scientific, cat. 15140122), and 2.5% Matrigel (Corning Inc., Corning, NY, cat. 354248) for the first three passages. The two PDC lines 997537-175-T-J1-PDC and 415267-285-R-J2-PDC were cultured on uncoated flasks. The 857933-349-R-J2-PDC line was cultured in 6C/Colon 1B media containing advanced DMEM/F-12 (Thermo Fisher Scientific, cat. 12634028), 10 mM HEPES (Thermo Fisher Scientific, cat. 15630080), 1X GlutaMAX supplement (Thermo Fisher Scientific, cat. 35050061), 0.1 mg/mL primocin (InvivoGen, San Diego, CA, cat. ant-pm-2), 10% defined fetal bovine serum, heat inactivated (HyClone Laboratories Inc., Logan, UT, cat. SH30070.03HI), 50% L-WRN conditioned media (ATCC, cat. CRL-3276), 1.25 mM N-Acetyl-L-cysteine (Sigma-Aldrich, cat. A9165), 10 mM nicotinamide (Sigma-Aldrich, cat. N0636), 1X B-27 supplement (Thermo Fisher Scientific, cat. 17504044), 1X N-2 supplement (Thermo Fisher Scientific, cat. […]
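Note: spheroids exposed to compounds for seven days before readout.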

SMILES: COc1cccc2c1C(=O)c1c(O)c3c(c(O)c1C2=O)CC(O)(C(=O)CO)CC3OC1CC(N)C(O)C(C)O1 (stereo not given)
- viability, T/C (compound 0.0316 µM): 20.9% and 28.2% and 13.1%
- viability, T/C (compound 0.1 µM): 9.22% and 14.2% and 10.2%
- viability, T/C (compound 0.316 µM): 3.11% and 2.95% and 2.47%
- viability, T/C (compound 1 µM): 0.45% and 0.73% and 0.38%
- viability, T/C (compound 3.16 µM): 0.69% and 0.96% and 0.43%
- viability, T/C (compound 10 µM): 3.06% and 2.86% and 1.27%
- pIC50 (curve of compound): > 7.50

SMILES: Cn1ncnc1[C@H]1c2n[nH]c(=O)c3cc(F)cc(c23)N[C@@H]1c1ccc(F)cc1
- viability, T/C (compound 0.000316 µM): 108% and 99.8% and 105%
- viability, T/C (compound 0.001 µM): 97% and 116% and 97.1%
- viability, T/C (compound 0.00316 µM): 108% and 105% and 111%
- viability, T/C (compound 0.01 µM): 108% and 122% and 110%
- viability, T/C (compound 0.0316 µM): 102% and 93.4% and 118%
- viability, T/C (compound 0.1 µM): 96.6% and 134% and 88.6%
- pIC50 (curve of compound): < 7.00

SMILES: C=CCn1c(=O)c2cnc(Nc3ccc(N4CCN(C)CC4)cc3)nc2n1-c1cccc(C(C)(C)O)n1 + Nc1ccc(C#CCN(C(=O)Cc2ncc(C(F)(F)F)cc2C(F)(F)F)c2ccc(F)cc2)nn1
- pIC50 (curve of first compound, second compound 0.0316 µM): < 6.00
- pIC50 (curve of first compound, second compound 0.1 µM): < 6.00
- pIC50 (curve of first compound, second compound 0.316 µM): < 6.00
- pIC50 (curve of first compound, second compound 1 µM): < 6.00
- pIC50 (curve of first compound, second compound 3.16 µM): < 6.00
- pIC50 (curve of first compound, second compound 10 µM): < 6.00
- viability, T/C (second compound 0.0316 µM, first compound 0.00316 µM): 96.4%
- viability, T/C (second compound 0.0316 µM, first compound 0.01 µM): 152%
- viability, T/C (second compound 0.0316 µM, first compound 0.0316 µM): 113%
- viability, T/C (second compound 0.0316 µM, first compound 0.1 µM): 85.5%
- viability, T/C (second compound 0.0316 µM, first compound 0.316 µM): 113%
- viability, T/C (second compound 0.0316 µM, first compound 1 µM): 204%
- viability, T/C (second compound 0.1 µM, first compound 0.00316 µM): 97%
- viability, T/C (second compound 0.1 µM, first compound 0.01 µM): 127%
- viability, T/C (second compound 0.1 µM, first compound 0.0316 µM): 110%
- viability, T/C (second compound 0.1 µM, first compound 0.1 µM): 101%
- viability, T/C (second compound 0.1 µM, first compound 0.316 µM): 114%
- viability, T/C (second compound 0.1 µM, first compound 1 µM): 160%
- viability, T/C (second compound 0.316 µM, first compound 0.00316 µM): 110%
- viability, T/C (second compound 0.316 µM, first compound 0.01 µM): 134%
- viability, T/C (second compound 0.316 µM, first compound 0.0316 µM): 102%
- viability, T/C (second compound 0.316 µM, first compound 0.1 µM): 107%
- viability, T/C (second compound 0.316 µM, first compound 0.316 µM): 110%
- viability, T/C (second compound 0.316 µM, first compound 1 µM): 219%
- viability, T/C (second compound 1 µM, first compound 0.00316 µM): 94.4%
- viability, T/C (second compound 1 µM, first compound 0.01 µM): 144%
- viability, T/C (second compound 1 µM, first compound 0.0316 µM): 103%
- viability, T/C (second compound 1 µM, first compound 0.1 µM): 112%
- viability, T/C (second compound 1 µM, first compound 0.316 µM): 118%
- viability, T/C (second compound 1 µM, first compound 1 µM): 193%
- viability, T/C (second compound 3.16 µM, first compound 0.00316 µM): 102%
- viability, T/C (second compound 3.16 µM, first compound 0.01 µM): 112%
- viability, T/C (second compound 3.16 µM, first compound 0.0316 µM): 107%
- viability, T/C (second compound 3.16 µM, first compound 0.1 µM): 115%
- viability, T/C (second compound 3.16 µM, first compound 0.316 µM): 126%
- viability, T/C (second compound 3.16 µM, first compound 1 µM): 198%
- viability, T/C (second compound 10 µM, first compound 0.00316 µM): 104%
- viability, T/C (second compound 10 µM, first compound 0.01 µM): 101%
- viability, T/C (second compound 10 µM, first compound 0.0316 µM): 96.9%
- viability, T/C (second compound 10 µM, first compound 0.1 µM): 122%
- viability, T/C (second compound 10 µM, first compound 0.316 µM): 109%
- viability, T/C (second compound 10 µM, first compound 1 µM): 161%

SMILES: COc1cc(C2c3cc4c(cc3C(OC3OC5COC(C)OC5C(O)C3O)C3COC(=O)C23)OCO4)cc(OC)c1O (stereo not given)
- viability, T/C (compound 0.0316 µM): 99.8% and 116% and 97.3%
- viability, T/C (compound 0.1 µM): 92.7% and 114% and 91%
- viability, T/C (compound 0.316 µM): 31.5% and 78.4% and 34%
- viability, T/C (compound 1 µM): 9.39% and 19.9% and 12.1%
- viability, T/C (compound 3.16 µM): 7.03% and 8.72% and 9.59%
- viability, T/C (compound 10 µM): 4.41% and 6.81% and 5.26%
- pIC50 (curve of compound): 6.65 and 6.26 and 6.64

SMILES: C=CCn1c(=O)c2cnc(Nc3ccc(N4CCN(C)CC4)cc3)nc2n1-c1cccc(C(C)(C)O)n1
- viability, T/C (compound 0.00316 µM): 100% and 104% and 107%
- viability, T/C (compound 0.01 µM): 100% and 120% and 111%
- viability, T/C (compound 0.0316 µM): 106% and 108% and 122%
- viability, T/C (compound 0.1 µM): 90.9% and 98.5% and 98%
- viability, T/C (compound 0.316 µM): 118% and 116% and 99.9%
- viability, T/C (compound 1 µM): 94.8% and 187% and 136%
- pIC50 (curve of compound): < 6.00
